Measurements from ChEMBL document CHEMBL3616407, “The imidazo[1,2-a]pyridine ring system as a scaffold for potent dual phosphoinositide-3-kinase (PI3K)/mammalian target of rapamycin (mTOR) inhibitors” (Bioorg Med Chem Lett, 2015).

Experiments:
Assay type in all cases: ADME, organism-based
Conditions in all cases: in vivo
[1] = Volume of distribution in iv dosed rat
[2] = Oral bioavailability in rat at 2 mg/kg
[3] = AUC in rat at 2 mg/kg, po
[4] = tested on: Plasma; experiment: Unbound plasma concentration in mouse

## COc1ncc(Nc2nc3ccc(C(C)(C)O)cn3c2-c2nc(C)nc(N)n2)cc1F
[1]
  Vd: 4.2 L/kg
[2]
  bioavailability: 51%
[3]
  AUC: 640 ng·h/mL
[4]
  Cp(f): 84 nM
